Assay results published in publication PMC9474474, “Determination of pharmacokinetics and tissue distribution of a novel lutetium-labeled PSMA-targeted ligand, ^177Lu-DOTA-PSMA-GUL, in rats by using LC–MS/MS” (Scientific Reports, 2022).

Experiment: Stability in rat plasma, urine, feces and 12 tissues (LC–MS/MS validation)
Format: in vitro ADME
Conditions: for Stability Freeze-thaw: 4 cycles; for Stability Autosampler: 4 °C for 24 h; for Stability Long-term: -70 °C for two weeks; for Stability Short-term: room temperature for 4 h
Experimental: Analytical validation data including stability and process efficiency are shown in Supplementary Tables 3 and 4. […] The process efficiency in each biological matrix is generally consistent (Supplementary Table 4). […] For plasma samples, the dilution integrity was evaluated for a 10- and 20-fold dilution of QC samples at 40,000 ng/mL, which was two times higher than ULOQ, with blank matrix. The accuracy for dilution integrity was 105.56% and 102.21%, while precision was 1.03% and 2.39% for tenfold and 20-fold dilution, respectively (n = 3, each).
Supplementary Table 3. Stability (%) of 175Lu-DOTA-PSMA-GUL in the rat plasma, urine, feces,
Matrix Concentration Short-term Long-term Freeze-thaw Autosampler
(ng/mL) (n=4) (n=4) (n=4) (n=4)

[1] = rat small intestine, 4,000 ng/mL

O=C([O-])CN1CCN(CC(=O)[O-])CCN(CC(=O)[O-])C(Cc2ccc(NC(=S)NCCCC[C@H](NC(=O)N[C@@H](CCC(=O)O)C(=O)O)C(=O)O)cc2)CN(CC(=O)[O-])CC1.[Lu+3] (stereo partly drawn) [^175Lu-DOTA-PSMA-GUL, Lutetium labeled-1,4,7,10-tetraazacyclododecane-1,4,7,10-tetraacetic acid (DOTA)-PSMA-GUL]
Stability Freeze-thaw (rat brain, 400 ng/mL): 96.03 ± 3.73% | Stability Autosampler (rat brain, 400 ng/mL): 96.57 ± 0.76% | Stability Long-term (rat brain, 400 ng/mL): 94.77 ± 3.27% | Stability Short-term (rat brain, 400 ng/mL): 92.98 ± 2.86% | Stability Freeze-thaw (rat brain, 4,000 ng/mL): 102.05 ± 3.19% | Stability Autosampler (rat brain, 4,000 ng/mL): 90.60 ± 1.22% | Stability Long-term (rat brain, 4,000 ng/mL): 95.22 ± 2.73% | Stability Short-term (rat brain, 4,000 ng/mL): 98.51 ± 2.55% | Stability Freeze-thaw (rat fat, 400 ng/mL): 91.54 ± 1.36% | Stability Autosampler (rat fat, 400 ng/mL): 95.57 ± 4.47% | Stability Long-term (rat fat, 400 ng/mL): 96.21 ± 4.47% | Stability Short-term (rat fat, 400 ng/mL): 98.86 ± 3.38% | Stability Freeze-thaw (rat fat, 4,000 ng/mL): 99.64 ± 2.85% | Stability Autosampler (rat fat, 4,000 ng/mL): 95.05 ± 0.70% | Stability Long-term (rat fat, 4,000 ng/mL): 94.41 ± 3.10% | Stability Short-term (rat fat, 4,000 ng/mL): 96.74 ± 3.52% | Stability Freeze-thaw (rat feces, 400 ng/mL): 104.54 ± 6.86% | Stability Autosampler (rat feces, 400 ng/mL): 97.85 ± 3.82% | Stability Long-term (rat feces, 400 ng/mL): 103.52 ± 1.25% | Stability Short-term (rat feces, 400 ng/mL): 90.69 ± 6.38% | Stability Freeze-thaw (rat feces, 4,000 ng/mL): 105.65 ± 2.20% | Stability Autosampler (rat feces, 4,000 ng/mL): 104.03 ± 2.53% | Stability Long-term (rat feces, 4,000 ng/mL): 101.50 ± 1.39% | Stability Short-term (rat feces, 4,000 ng/mL): 104.76 ± 2.40% | Stability Autosampler (rat heart, 400 ng/mL): 98.75 ± 4.29% | Stability Long-term (rat heart, 400 ng/mL): 93.97 ± 1.45% | Stability Short-term (rat heart, 400 ng/mL): 95.08 ± 10.83% | Stability Freeze-thaw (rat heart, 4,000 ng/mL): 97.19 ± 8.21% | Stability Autosampler (rat heart, 4,000 ng/mL): 92.56 ± 3.26% | Stability Long-term (rat heart, 4,000 ng/mL): 93.50 ± 2.78% | Stability Short-term (rat heart, 4,000 ng/mL): 91.74 ± 0.93% | Stability Freeze-thaw (rat kidney, 400 ng/mL): 94.83 ± 2.49% | Stability Autosampler (rat kidney, 400 ng/mL): 95.72 ± 4.19% | Stability Long-term (rat kidney, 400 ng/mL): 95.92 ± 2.97% | Stability Short-term (rat kidney, 400 ng/mL): 95.45 ± 3.51% | Stability Freeze-thaw (rat kidney, 4,000 ng/mL): 94.30 ± 1.02% | Stability Autosampler (rat kidney, 4,000 ng/mL): 97.98 ± 2.82% | Stability Long-term (rat kidney, 4,000 ng/mL): 94.61 ± 2.50% | Stability Short-term (rat kidney, 4,000 ng/mL): 98.14 ± 3.63% | Stability Freeze-thaw (rat liver, 400 ng/mL): 95.93 ± 3.91% | Stability Autosampler (rat liver, 400 ng/mL): 97.39 ± 3.47% | Stability Long-term (rat liver, 400 ng/mL): 97.86 ± 1.87% | Stability Short-term (rat liver, 400 ng/mL): 98.94 ± 5.66% | Stability Freeze-thaw (rat liver, 4,000 ng/mL): 91.72 ± 2.23% | Stability Autosampler (rat liver, 4,000 ng/mL): 92.47 ± 2.32% | Stability Long-term (rat liver, 4,000 ng/mL): 91.83 ± 1.56% | Stability Short-term (rat liver, 4,000 ng/mL): 91.39 ± 2.47% | Stability Freeze-thaw (rat lung, 400 ng/mL): 96.40 ± 1.10% | Stability Autosampler (rat lung, 400 ng/mL): 98.84 ± 7.51% | Stability Long-term (rat lung, 400 ng/mL): 99.08 ± 2.59% | Stability Short-term (rat lung, 400 ng/mL): 98.55 ± 4.32% | Stability Freeze-thaw (rat lung, 4,000 ng/mL): 97.55 ± 0.70% | Stability Autosampler (rat lung, 4,000 ng/mL): 102.00 ± 4.06% | Stability Long-term (rat lung, 4,000 ng/mL): 95.79 ± 1.75% | Stability Short-term (rat lung, 4,000 ng/mL): 96.87 ± 1.97% | Stability Freeze-thaw (rat muscle, 400 ng/mL): 101.47 ± 2.25% | Stability Autosampler (rat muscle, 400 ng/mL): 94.93 ± 2.73% | Stability Long-term (rat muscle, 400 ng/mL): 99.56 ± 2.47% | Stability Short-term (rat muscle, 400 ng/mL): 100.99 ± 2.76% | Stability Freeze-thaw (rat muscle, 4,000 ng/mL): 94.67 ± 0.44% | Stability Autosampler (rat muscle, 4,000 ng/mL): 98.62 ± 2.06% | Stability Long-term (rat muscle, 4,000 ng/mL): 99.74 ± 4.41% | Stability Short-term (rat muscle, 4,000 ng/mL): 99.13 ± 2.50% | Stability Freeze-thaw (rat plasma, 80 ng/mL): 102.92 ± 2.77% | Stability Autosampler (rat plasma, 80 ng/mL): 97.69 ± 3.09% | Stability Long-term (rat plasma, 80 ng/mL): 100.61 ± 2.11% | Stability Short-term (rat plasma, 80 ng/mL): 106.18 ± 0.41% | Stability Freeze-thaw (rat plasma, 16,000 ng/mL): 98.68 ± 1.21% | Stability Autosampler (rat plasma, 16,000 ng/mL): 102.82 ± 1.73% | Stability Long-term (rat plasma, 16,000 ng/mL): 99.20 ± 0.51% | Stability Short-term (rat plasma, 16,000 ng/mL): 101.14 ± 2.43% | Stability Freeze-thaw (rat prostate, 400 ng/mL): 95.17 ± 3.44% | Stability Autosampler (rat prostate, 400 ng/mL): 97.82 ± 2.46% | Stability Long-term (rat prostate, 400 ng/mL): 95.50 ± 3.57% | Stability Short-term (rat prostate, 400 ng/mL): 95.76 ± 1.48% | Stability Freeze-thaw (rat prostate, 4,000 ng/mL): 99.85 ± 2.74% | Stability Autosampler (rat prostate, 4,000 ng/mL): 96.30 ± 0.83% | Stability Long-term (rat prostate, 4,000 ng/mL): 97.12 ± 3.90% | Stability Short-term (rat prostate, 4,000 ng/mL): 99.30 ± 3.24% | Stability Freeze-thaw (rat small intestine, 400 ng/mL): 99.15 ± 6.00% | Stability Autosampler (rat small intestine, 400 ng/mL): 98.68 ± 2.52% | Stability Long-term (rat small intestine, 400 ng/mL): 98.80 ± 2.76% | Stability Short-term (rat small intestine, 400 ng/mL): 99.17 ± 2.35% | Stability Freeze-thaw [1]: 100.54 ± 2.33% | Stability Autosampler [1]: 104.13 ± 2.24% | Stability Long-term [1]: 103.65 ± 4.10% | Stability Short-term [1]: 102.12 ± 2.51% | Stability Freeze-thaw (rat spleen, 400 ng/mL): 98.46 ± 3.74% | Stability Autosampler (rat spleen, 400 ng/mL): 102.59 ± 1.80% | Stability Long-term (rat spleen, 400 ng/mL): 97.10 ± 3.45% | Stability Short-term (rat spleen, 400 ng/mL): 101.61 ± 2.41% | Stability Freeze-thaw (rat spleen, 4,000 ng/mL): 104.53 ± 2.39% | Stability Autosampler (rat spleen, 4,000 ng/mL): 102.93 ± 2.02% | Stability Long-term (rat spleen, 4,000 ng/mL): 106.40 ± 3.85% | Stability Short-term (rat spleen, 4,000 ng/mL): 104.24 ± 4.36% | Stability Freeze-thaw (rat stomach, 400 ng/mL): 97.59 ± 1.68% | Stability Autosampler (rat stomach, 400 ng/mL): 100.00 ± 4.55% | Stability Long-term (rat stomach, 400 ng/mL): 99.72 ± 2.41% | Stability Short-term (rat stomach, 400 ng/mL): 98.96 ± 4.28% | Stability Freeze-thaw (rat stomach, 4,000 ng/mL): 92.47 ± 1.38% | Stability Autosampler (rat stomach, 4,000 ng/mL): 93.61 ± 2.79% | Stability Long-term (rat stomach, 4,000 ng/mL): 94.79 ± 3.41% | Stability Short-term (rat stomach, 4,000 ng/mL): 96.98 ± 3.91% | Stability Freeze-thaw (rat testis, 400 ng/mL): 107.18 ± 0.85% | Stability Autosampler (rat testis, 400 ng/mL): 101.68 ± 6.54% | Stability Long-term (rat testis, 400 ng/mL): 103.74 ± 3.80% | Stability Short-term (rat testis, 400 ng/mL): 100.51 ± 3.98% | Stability Freeze-thaw (rat testis, 4,000 ng/mL): 99.52 ± 0.96% | Stability Autosampler (rat testis, 4,000 ng/mL): 97.56 ± 4.96% | Stability Long-term (rat testis, 4,000 ng/mL): 94.96 ± 4.89% | Stability Short-term (rat testis, 4,000 ng/mL): 101.72 ± 1.48% | Stability Freeze-thaw (rat urine, 400 ng/mL): 105.67 ± 4.65% | Stability Autosampler (rat urine, 400 ng/mL): 94.03 ± 2.84% | Stability Long-term (rat urine, 400 ng/mL): 98.36 ± 1.67% | Stability Short-term (rat urine, 400 ng/mL): 91.67 ± 2.58% | Stability Freeze-thaw (rat urine, 16,000 ng/mL): 92.41 ± 1.12% | Stability Autosampler (rat urine, 16,000 ng/mL): 104.69 ± 2.03% | Stability Long-term (rat urine, 16,000 ng/mL): 100.28 ± 1.39% | Stability Short-term (rat urine, 16,000 ng/mL): 106.46 ± 1.17% | stability in each biological matrix (short-term, long-term, freeze–thaw and autosampler storage conditions): stable
